Consider 1 compound from patent US20250177366A1, “COMPOSITIONS AND METHODS FOR ALLEVIATING PAIN AND REDUCING ADVERSIVENESS OF STIMULI” (UNIVERSITY OF WASHINGTON, priority 2021, published 2025).

Each structure is given as a SMILES string.

The test system of one test is larval zebrafish. The test can be described thus: Thermal preference assay (28.5° C. vs 37.5° C.), non-sensitized. In kind it is in vivo, Zebrafish (Danio rerio). Here is the method:
Thermal preference assay. […] Once an entire plate was loaded with fish, the appropriate incubation solution was added. […] Following incubation in all experiments, the choice testing plate was transported to a dual solid-state heat/cool plate (AHP-1200° C. P; Teca) and centered such that half of each arena was positioned over each side of the heat/cool plate. […] Locomotor behavior was recorded using a Canon high-definition video camcorder suspended at a fixed position above the choice testing plate. Each trial was four minutes in duration.
For single-incubation assays (e.g. testing single chemicals), larval zebrafish were caught in 100 μL E2 media and 100 μL of the control (2% DMSO) or test chemical at 2× concentration was added to each well to achieve the final desired concentration. […] The final DMSO concentration in all solutions was 1%.

In test [1] the test system is neuronal activity marker phosphorylated-ERK (pERK). The test can be described thus: Whole brain activity profiling, pERK/tERK immunolabeling and MAP-mapping. Format: in vivo, Zebrafish (Danio rerio). On the procedure:
To investigate how AS1 might alter central nervous system activity in the presence of nociceptive stimuli, whole brain activity profiling with the neuronal activity marker phosphorylated-ERK (pERK) was performed. Briefly, 6 dpf larval zebrafish were exposed to noxious heat (37.5° C.) or rearing temperature (28.5° C.) in the presence of vehicle or AS1 (either 2.5 or 5 μM) for 15 minutes. Immunolabeling was then performed to detect both total ERK (tERK) and phosphorylated ERK (pERK) (FIG. 8). Volumetric z-stacks of the entire brain of each fish were taken upon a confocal microscope, registered to a reference brain, and smoothed using an ImageJ script. […] Brains from each experimental condition (AS1+28.5° C., Vehicle+37.5° C., and AS1+37.5° C.) with Vehicle+28.5° C. were initially compared to determine how activity under these experimental conditions differed from the baseline state, then the total change in signal in each brain region were subtracted for AS1+28.5° C. and Vehicle+37.5° C. treated fish from AS1+37.5° C. treated fish. This was done to look for brain regions specifically activated in the presence of the noxious stimulus and AS1, reasoning that these areas would drive attraction to noxious stimuli.
pERK Immunolabeling. […]

For test [2], the system named is T1, 5-HT2a serotonin receptor (Homo sapiens).
T1 construct: Psychoactive Drug Screening Program (PDSP)
The test can be described thus: PDSP radioligand binding assay. Particulars: PDSP screen. On the procedure:
(§1) To further seek out the molecular target(s) of AS1, the resources of the Psychoactive Drug Screening Program (PDSP) (Besnard et al., Nature. 2012; 492:215-220) were utilized. […] While not being limited to mechanism or theory, to verify whether these receptors were involved in mediating the effects of AS1, the thermal preference assay following incubation in drugs that specifically acted upon these receptors was employed. […] Nor did treatment with the 5-HT2 s antagonist LY266097 replicate or reverse the effects of AS1 (FIG. 6). Incubation in either the specific sigma-1 receptor agonist (PRE-084) or antagonist (BD1063) similarly yielded no effects (FIG. 6).

In another test the target is T2, sigma-1 receptor (Homo sapiens, UniProt Q99720).
T2 construct: Psychoactive Drug Screening Program (PDSP)
The test can be described thus: PDSP radioligand binding assay. Particulars: PDSP screen. On the procedure:
as §1

The mark [3] stands for this setting: 28.5 vs 37.5° C., dose-response 0-5 μM.

T1 sequence (P41595 whole entry): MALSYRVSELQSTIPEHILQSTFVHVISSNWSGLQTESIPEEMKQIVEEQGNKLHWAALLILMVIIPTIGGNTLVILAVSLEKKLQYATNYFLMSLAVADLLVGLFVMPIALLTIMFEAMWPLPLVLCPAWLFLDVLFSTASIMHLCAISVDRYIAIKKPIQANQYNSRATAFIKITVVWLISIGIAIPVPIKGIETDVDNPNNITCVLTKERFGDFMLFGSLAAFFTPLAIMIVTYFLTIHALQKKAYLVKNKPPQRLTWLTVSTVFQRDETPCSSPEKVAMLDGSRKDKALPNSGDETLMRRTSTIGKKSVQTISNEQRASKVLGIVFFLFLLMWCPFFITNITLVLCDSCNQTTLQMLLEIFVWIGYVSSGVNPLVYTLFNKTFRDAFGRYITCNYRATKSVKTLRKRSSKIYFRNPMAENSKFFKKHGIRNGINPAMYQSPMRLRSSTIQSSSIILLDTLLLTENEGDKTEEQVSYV
T2 sequence (Q99720 whole entry, species assumed): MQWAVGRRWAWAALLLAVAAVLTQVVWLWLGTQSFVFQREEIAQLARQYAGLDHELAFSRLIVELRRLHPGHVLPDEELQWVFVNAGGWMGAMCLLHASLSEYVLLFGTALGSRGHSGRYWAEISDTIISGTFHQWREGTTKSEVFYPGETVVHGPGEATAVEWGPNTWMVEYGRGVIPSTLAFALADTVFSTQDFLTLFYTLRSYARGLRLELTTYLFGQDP

Regarding `CC(C)c1ccc(C(=O)Nc2ccncc2)cc1` [AS1, 4-propan-2-yl-N-pyridin-4-ylbenzamide], the “zone-dependent locomotor activity (swimming velocity)” value in the test on larval zebrafish (28.5 vs 37.5° C. zones, compared to vehicle-treated larvae) was “inverted zone-dependent locomotor activity”. Besides, the “concentration that eliminates preference for either zone” value in the test with larval zebrafish (setting [3]) worked out at 1.25 µM. Besides, the “concentrations that induce preference for the 37.5° C. zone” value in the test on larval zebrafish (setting [3]) is greater than 2.5 µM. Also, the “preference in acute heat aversion” value in the test on larval zebrafish (28.5° vs 37.5° C., 5 μM AS1 (highest dose)) is “evoked strong preference for the nociceptive stimulus”. The “Reverses 28.5° C. Choice?” value in the test with larval zebrafish (temperature preference 28.5° C. vs 37.5° C., larval zebrafish) is listed as “Yes”. In addition, the “share of the top 25 most active regions that are subpallial/dopaminergic populations” value in test [1] (AS1 + noxious heat (37.5° C.)) is recorded as 64%. Also, the “brain regions recruited by AS1 alone” value in test [1] (AS1-treated fish not exposed to noxious heat (28.5° C.)) is “primarily recruited neuron clusters within the mesencephalon and rhombencephalon”. In addition, the radioligand binding interaction entry (in test [2]; at sigma-1 receptor) was “potentially weak interactions” each time.
